We go through 13 compounds from US20240018123A1, “COMPOUND FOR INHIBITING OR DISINTEGRATING ANDROGEN RECEPTOR, AND PHARMACEUTICAL USE THEREOF” (KOREA RESEARCH INSTITUTE OF CHEMICAL TECHNOLOGY, priority 2020, published 2024).

A word on the CC50: it is the concentration at which the toxic effect on the cells reaches its halfway point.

One series concerns VCaP cells. Kind of series: Cytotoxicity assessment (Cell-titer-glo cell viability), VCaP. Conditions: read-out: VCaP (CC50); VCaP cells, 6 days of treatment, Cell-titer-glo, vs DMSO.
For another series, the target named is T1, Androgen receptor (AR) (Homo sapiens, UniProt P10275, T878A).
T1 construct: 5.5×10^5 LNCap cells were injected into each well of a 6-well plate; endogenous in cells; host or cells: LNCaP
T1 sequence (P10275 1-920 T878A): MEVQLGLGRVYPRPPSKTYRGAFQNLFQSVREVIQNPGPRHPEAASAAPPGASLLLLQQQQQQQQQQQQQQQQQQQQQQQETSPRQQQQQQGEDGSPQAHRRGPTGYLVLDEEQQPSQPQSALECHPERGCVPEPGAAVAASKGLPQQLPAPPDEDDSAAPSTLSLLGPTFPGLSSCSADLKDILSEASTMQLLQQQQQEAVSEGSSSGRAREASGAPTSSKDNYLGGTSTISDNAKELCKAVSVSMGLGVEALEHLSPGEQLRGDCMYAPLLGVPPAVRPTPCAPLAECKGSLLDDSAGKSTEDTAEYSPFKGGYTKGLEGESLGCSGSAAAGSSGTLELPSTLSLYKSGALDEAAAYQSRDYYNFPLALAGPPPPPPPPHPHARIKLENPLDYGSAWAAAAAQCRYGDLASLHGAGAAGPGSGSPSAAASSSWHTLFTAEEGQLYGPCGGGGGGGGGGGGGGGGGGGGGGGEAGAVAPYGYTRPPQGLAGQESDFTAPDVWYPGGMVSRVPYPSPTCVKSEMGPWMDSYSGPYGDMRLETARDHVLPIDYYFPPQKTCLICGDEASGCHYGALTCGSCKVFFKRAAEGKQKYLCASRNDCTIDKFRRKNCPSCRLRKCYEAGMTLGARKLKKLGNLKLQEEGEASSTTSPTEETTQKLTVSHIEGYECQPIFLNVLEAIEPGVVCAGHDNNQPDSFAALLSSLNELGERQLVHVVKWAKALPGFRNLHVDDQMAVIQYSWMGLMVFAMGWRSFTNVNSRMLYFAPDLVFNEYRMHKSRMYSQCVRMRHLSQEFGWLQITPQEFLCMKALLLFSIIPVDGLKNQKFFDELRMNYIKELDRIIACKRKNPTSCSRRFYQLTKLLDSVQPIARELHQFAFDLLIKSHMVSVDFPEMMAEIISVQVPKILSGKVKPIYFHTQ
Kind of series: Assessment of AR proteolytic activity (Western blotting of LNCap cell lysates). Conditions: 24 hours of treatment, Western blotting quantified with Image J. The series is classed as cell-based. The protocol:
Assessment of AR Proteolytic Activity
Androgen receptor (AR) proteolytic activity of the compound according to the present invention was evaluated as follows: Specifically, 5.5×10^5 LNCap cells were injected into each well of a 6-well plate. […] After 24 hours of treatment, cells were collected and lysed using RIPA Lysis buffer (50 mM Tris-HCl, pH7.5, 150 mM NaCl, 1% Triton X-100, 2 mM EDTA, 0.1% SDS, 0.5% sodium deoxycholate and protease inhibitor cocktail) to make cell lysates. Western blotting was performed, and the results were quantified using Image J program.
In general terms: A western blot detects proteins with antibodies after separation by electrophoresis.

Experimental for VCaP cells: In order to evaluate the androgen receptor (AR) cytotoxicity of the compounds according to the present invention, the following experiment was conducted. Specifically, 1.5×10^3 (LNCaP) or 4×10^3 (VCaP, 22RV1), respectively, of LNCaP, VCaP, and 22RV1 cells were injected into each well of a 96-well plate. The next day, each well was treated with the compound at a final concentration of 3 nM, 10 nM, 30 nM, 100 nM, 300 nM, 1 μM, 3 μM, and 10 μM. […] After 6 days of treatment, Cell-titer-glo (promega) was treated and reacted for 10 minutes, and cell viability was measured with a multimode plate reader (PerkinElmer, Inc.), and the change was quantified compared to when DMSO was treated.

In the case of `CC1(C)C(NC(=O)c2ccc(N3CCN(CC4CCN(CCNC(=O)CNc5ccc6nnn(C7CCC(=O)NC7=O)c(=O)c6c5)CC4)CC3)cc2)C(C)(C)C1Oc1ccc(C#N)c(Cl)c1` (stereo not shown) [Example 59, N-((1r,3r)-3-(3-chloro-4-cyanophenoxy)-2,2,4,4-tetramethylcyclobutyl)-4-(4-((1-(2-(2-((3-(2,6-dioxopiperidin-3-yl)-4-oxo-3,4-dihydrobenzo[d][1,2,3]triazin-6-yl)amino)acetamido)ethyl)piperidin-4-yl)methyl)piperazin-1-yl)benzamide], the CC50 in the series with VCaP cells was ~1000 nM.

Take `CC1(C)[C@H](NC(=O)c2ccc(N3CCN(CC4CCN(CCNC(=O)C5CN(c6ccc7nnn(C8CCC(=O)NC8=O)c(=O)c7c6)C5)CC4)CC3)cc2)C(C)(C)[C@H]1Oc1ccc(C#N)c(Cl)c1` (stereo partly shown) [Example 69, N-(2-(4-((4-(4-(((1r,3r)-3-(3-chloro-4-cyanophenoxy)-2,2,4,4-tetramethylcyclobutyl)carbamoyl)phenyl)piperazin-1-yl)methyl)piperidin-1-yl)ethyl)-1-(3-(2,6-dioxopiperidin-3-yl)-4-oxo-3,4-dihydrobenzo[d][1,2,3]triazin-6-yl)azetidine-3-carboxamide]: the CC50 in the series with VCaP cells worked out at 345 nM.

On to `CC1(C)C(NC(=O)c2ccc(N3CC[C@H](CN4CCC5(CC4)CN(c4ccc6c(=O)n(C7CCC(=O)NC7=O)nnc6c4)C5)C3)nc2)C(C)(C)C1Oc1ccc(C#N)c(Cl)c1` (stereo partly drawn) [Example 189, N-((1r,3R)-3-(3-chloro-4-cyanophenoxy)-2,2,4,4-tetramethylcyclobutyl)-6-((3R)-3-((2-(3-(2,6-dioxopiperidin-3-yl)-4-oxo-3,4-dihydrobenzo[d][1,2,3]triazin-7-yl)-2,7-diazaspiro[3.5]nonan-7-yl)methyl)pyrrolidin-1-yl)nicotinamide], for which the “Degradation (1 μM treated in LNCaP, % AR remaining)” value at Androgen receptor (AR) amounted to 14%.

Take `CC1(C)[C@H](NC(=O)c2ccc(N3CC[C@H](CN4CC5(C4)CN(c4ccc6c(=O)n(C7CCC(=O)NC7=O)nnc6c4)C5)C3)nc2)C(C)(C)[C@H]1Oc1ccc(C#N)c(Cl)c1` (stereo partly drawn) [Example 190, N-((1r,3R)-3-(3-chloro-4-cyanophenoxy)-2,2,4,4-tetramethylcyclobutyl)-6-((3R)-3-((6-(3-(2,6-dioxopiperidin-3-yl)-4-oxo-3,4-dihydrobenzo[d][1,2,3]triazin-7-yl)-2,6-diazaspiro[3.3]heptan-2-yl)methyl)pyrrolidin-1-yl)nicotinamide]: on Androgen receptor (AR), the “Degradation (1 μM treated in LNCaP, % AR remaining)” value was found to be 11%.

Turning to `CC1(C)C(NC(=O)c2ccc(N3CC[C@H](CN4CCN(C5CCN(c6ccc7c(=O)n(C8CCC(=O)NC8=O)nnc7c6)CC5)CC4)C3)nc2)C(C)(C)C1Oc1ccc(C#N)c(Cl)c1` (stereo partly drawn) [Example 191, N-((1r,3R)-3-(3-chloro-4-cyanophenoxy)-2,2,4,4-tetramethylcyclobutyl)-6-((3R)-3-((4-(1-(3-(2,6-dioxopiperidin-3-yl)-4-oxo-3,4-dihydrobenzo[d][1,2,3]triazin-7-yl)piperidin-4-yl)piperazin-1-yl)methyl)pyrrolidin-1-yl)nicotinamide], the “Degradation (1 μM treated in LNCaP, % AR remaining)” value at Androgen receptor (AR) is 33%.

On to `CC1(C)C(NC(=O)c2ccc(N3CC[C@H](CN4CCN(C5CCN(c6ccc7nnn(C8CCC(=O)NC8=O)c(=O)c7c6)CC5)CC4)C3)nc2)C(C)(C)C1Oc1ccc(C#N)c(Cl)c1` (stereo partly drawn) [Example 192, N-((1r,3R)-3-(3-chloro-4-cyanophenoxy)-2,2,4,4-tetramethylcyclobutyl)-6-((3R)-3-((4-(1-(3-(2,6-dioxopiperidin-3-yl)-4-oxo-3,4-dihydrobenzo[d][1,2,3]triazin-6-yl)piperidin-4-yl)piperazin-1-yl)methyl)pyrrolidin-1-yl)nicotinamide], for which the “Degradation (1 μM treated in LNCaP, % AR remaining)” value on Androgen receptor (AR) came out at 22%.

As to `CC1(C)C(NC(=O)c2ccc(N3CCC(CN4CCN(C5CCN(c6ccc7c(=O)n(C8CCC(=O)NC8=O)nnc7c6)CC5)CC4)CC3)nc2)C(C)(C)C1Oc1ccc(C#N)c(Cl)c1` (stereo not shown) [Example 193, N-((1r,3r)-3-(3-chloro-4-cyanophenoxy)-2,2,4,4-tetramethylcyclobutyl)-6-(4-((4-(1-(3-(2,6-dioxopiperidin-3-yl)-4-oxo-3,4-dihydrobenzo[d][1,2,3]triazin-7-yl)piperidin-4-yl)piperazin-1-yl)methyl)piperidin-1-yl)nicotinamide], the “Degradation (1 μM treated in LNCaP, % AR remaining)” value on Androgen receptor (AR) turned out to be 12%.

On to `CC1(C)C(NC(=O)c2ccc(N3CCC(CN4CCN(C5CCN(c6ccc7nnn(C8CCC(=O)NC8=O)c(=O)c7c6)CC5)CC4)CC3)nc2)C(C)(C)C1Oc1ccc(C#N)c(Cl)c1` (stereo not shown) [Example 194, N-((1r,3r)-3-(3-chloro-4-cyanophenoxy)-2,2,4,4-tetramethylcyclobutyl)-6-(4-((4-(1-(3-(2,6-dioxopiperidin-3-yl)-4-oxo-3,4-dihydrobenzo[d][1,2,3]triazin-6-yl)piperidin-4-yl)piperazin-1-yl)methyl)piperidin-1-yl)nicotinamide], for which the “Degradation (1 μM treated in LNCaP, % AR remaining)” value on Androgen receptor (AR) is given as 9%.

For `CC1(C)[C@H](NC(=O)c2ccc(C#CC3CCN(CC4CCN(c5ccc6c(=O)n(C7CCC(=O)NC7=O)nnc6c5)CC4)CC3)nc2)C(C)(C)[C@H]1Oc1ccc(C#N)c(Cl)c1` (stereo partly shown) [Example 195, N-((1r,3r)-3-(3-chloro-4-cyanophenoxy)-2,2,4,4-tetramethylcyclobutyl)-6-((1-((1-(3-(2,6-dioxopiperidin-3-yl)-4-oxo-3,4-dihydrobenzo[d][1,2,3]triazin-7-yl)piperidin-4-yl)methyl)piperidin-4-yl)ethynyl)nicotinamide], at Androgen receptor (AR), the “Degradation (1 μM treated in LNCaP, % AR remaining)” value is 3%.

`CC1(C)C(NC(=O)c2ccc(C#CC3CCN(CC4CCN(c5ccc6nnn(C7CCC(=O)NC7=O)c(=O)c6c5)CC4)CC3)nc2)C(C)(C)C1Oc1ccc(C#N)c(Cl)c1` (stereo not shown) [Example 196, N-((1r,3r)-3-(3-chloro-4-cyanophenoxy)-2,2,4,4-tetramethylcyclobutyl)-6-((1-((1-(3-(2,6-dioxopiperidin-3-yl)-4-oxo-3,4-dihydrobenzo[d][1,2,3]triazin-6-yl)piperidin-4-yl)methyl)piperidin-4-yl)ethynyl)nicotinamide]: on Androgen receptor (AR), the “Degradation (1 μM treated in LNCaP, % AR remaining)” value is listed as 4%.

On to `CC1(C)C(NC(=O)c2ccc(N3CCC(CCN4CCN(c5ccc6c(=O)n(C7CCC(=O)NC7=O)nnc6c5)CC4)CC3)nc2)C(C)(C)C1Oc1ccc(C#N)c(Cl)c1` (stereo not shown) [Example 197, N-((1r,3r)-3-(3-chloro-4-cyanophenoxy)-2,2,4,4-tetramethylcyclobutyl)-6-(4-(2-(4-(3-(2,6-dioxopiperidin-3-yl)-4-oxo-3,4-dihydrobenzo[d][1,2,3]triazin-7-yl)piperazin-1-yl)ethyl)piperidin-1-yl)nicotinamide], for which, on Androgen receptor (AR), the “Degradation (1 μM treated in LNCaP, % AR remaining)” value turned out to be 16%.

In the case of `CC1(C)[C@H](NC(=O)c2ccc(N3CCC(CCN4CCN(c5ccc6nnn(C7CCC(=O)NC7=O)c(=O)c6c5)CC4)CC3)nc2)C(C)(C)[C@H]1Oc1ccc(C#N)c(Cl)c1` (stereo partly shown) [Example 198, N-((1r,3r)-3-(3-chloro-4-cyanophenoxy)-2,2,4,4-tetramethylcyclobutyl)-6-(4-(2-(4-(3-(2,6-dioxopiperidin-3-yl)-4-oxo-3,4-dihydrobenzo[d][1,2,3]triazin-6-yl)piperazin-1-yl)ethyl)piperidin-1-yl)nicotinamide], the “Degradation (1 μM treated in LNCaP, % AR remaining)” value at Androgen receptor (AR) is listed as 10%.

Turning to “N-((1r,3r)-3-(3-chloro-4-cyanophenoxy)-2,2,4,4-tetramethylcyclobutyl)-4-(4-(1-(3-(2,6-dioxopiperidin-3-yl)-4-oxo-3,4-dihydrobenzo[d][1,2,3]triazin-6-yl)azetidine-3-carbonyl)piperazin-1-yl)benzamide [Example 44]”, the “Degradation (1 μM treated in LNCaP, % AR remaining)” value on Androgen receptor (AR) is 3.7%.
